# Where two headings read alike, the source gives them in different places.
# Experiments:
# menopausal women [1] = experiment: Placebo-controlled study: severity of moderate to severe hot flushes; type: in vivo, human (women); set-up: key to Severity of Moderate to Severe Hot Flushes, Mean Change from Baseline / Severity of Moderate to Severe Hot Flushes, Mean: 0 none, 1 mild, 2 moderate, 3 severe hot flush intensity; settings: 0.375 mg dose
# Protocol: (§1) This study was a multi-centred, double-blind, placebo-controlled, parallel group comparison. A total of 351 subjects were enrolled at 78 sites in the United States.
# (§2) A two-week, medication free, Pre-Treatment Phase was used to determine subject vasomotor symptoms. Efficacy assessments included the number and intensity of hot flushes per day, and severity of vulvar and vaginal atrophy symptoms.
# (§3) The three treatment groups comprised the following dosages: • A 0.375 mg dose (1.25 g of gel @ 0.03%) applied to one arm and 0.9 g of placebo gel applied on the other arm once daily for 12 weeks; • A 0.27 mg dose (0.9 g of gel @ 0.03%) applied to one arm and 1.25 g of placebo gel applied on the other arm once daily for 12 weeks; and • 0.9 g of placebo gel applied to one arm and 1.25 g of placebo gel applied on the other arm once daily for 12 weeks.
# (§4) The Treatment Phase was 12 weeks. A pre-treatment period of 2 weeks was used to initially evaluate each subject's vasomotor symptoms.
# (§5) All data were analyzed using the approach of Observed Cases (OC).
# (§6) For all continuous primary and secondary efficacy parameters, descriptive statistics tables and 2-way ANCOVA with fixed factors treatment and centre, and baseline value as covariate were provided. The interaction of treatment and centre was investigated using 2-way ANCOVA with fixed factors treatment, centre, and treatment-by-centre interaction with baseline value as covariate. To control the Type-I error rate, a step-down procedure using contrasts was performed to compare each treatment group to the placebo group. First, the group with the 0.375 mg dose was compared against placebo at the α=0.05 level (2-sided). If the null hypothesis was rejected, the group with the 0.27 mg dose was compared to placebo at the α=0.05 level (2-sided). Graphs were used to characterize the dose response. If the assumptions of the model were not met, then van Elteren's test with centre as the stratification variable was used in the step-down procedure. For categorical data, Fisher's exact test was used to compare treatment groups.
# (§7) The study assessed the following variables: • Mean change in frequency of moderate to severe vasomotor symptoms from baseline to Week 4; • Mean change in frequency of moderate to severe vasomotor symptoms from baseline to Week 12; • Mean change in severity of moderate to severe vasomotor symptoms from baseline to Week 4; • Mean change in severity of moderate to severe vasomotor symptoms from baseline to Week 12; • Mean change in frequency of moderate-to-severe hot flushes at each week; • Mean change in severity of moderate-to-severe hot flushes at each week; • Mean change from baseline to Week 12 in the moderate to severe symptom of vulvar and vaginal atrophy that has been identified by the subject as being the most bothersome to her (vaginal pain, dryness, irritation/itching, bleeding, dysuria);
# Severity of moderate to severe vasomotor symptoms was defined as (2*number of moderate hot flushes+3*number of severe hot flushes)/total number of moderate and severe hot flushes.
# As with frequency, if less than 10 days of data were available for the baseline period, the baseline severity was considered missing.
# On a daily basis, the subject recorded the number of hot flushes and rated the intensity of each based on a four-point scale as follows: • 0 (none) • 1 (mild) Sensation of heat without perspiration • 2 (moderate) Sensation of heat with perspiration, but the subject was able to continue with their activity • 3 (severe) Sensation of heat with sweating, sufficiently severe to result in discontinuation of activity Assessment of Vulvar and Vaginal Atrophy Symptom Severity
# menopausal women [2] = experiment: Placebo-controlled study: moderate to severe symptom of vulvar and vaginal atrophy; type: in vivo, human (women)
# Protocol: as §1, §2, §3, §4, §5, §6, §7
# The severity of symptoms of vulvar and vaginal atrophy (vaginal pain associated with sexual activity, dryness, irritation/itching, bleeding associated with sexual activity, or dysuria) that was identified by the subject as moderate to severe and most bothersome was assessed at Week 1, Week 12, or Early Termination using the following rating scale: […]
# [3] = Plasma concentrations of estradiol and unconjugated estrone (HPLC with MS/MS); type: in vivo, human (women); settings: for Geometric Mean Concentration of E2 (plasma): Baseline; for concentration at 4 weeks / concentration at 8 weeks / concentration at 12 weeks: female, human, plasma, topical, read-out: Geometric Mean Concentration of E2 (plasma)
# Protocol: A single 10 mL sample of whole blood was collected at baseline, Weeks 4, 8, and 12. To eliminate the possibility of sample contamination, only the specimens obtained from the arm not used for estradiol application were reported.
# [4] = cited from earlier work
# [5] = 0.27 mg dose (N = 115), Baseline
# [6] = 0.27 mg dose (N = 115), Endpoint
# [7] = 0.375 mg dose (N = 114), Baseline
# [8] = 0.375 mg dose (N = 114), Endpoint
compound,measurement,setting,value
"C[C@]12CC[C@@H]3c4ccc(O)cc4CC[C@H]3[C@@H]1CC[C@@H]2O [estradiol, 17-beta estradiol]","Severity of Moderate to Severe Hot Flushes, Mean Change from Baseline",menopausal women [1]; Week 2,−0.10
same,"Severity of Moderate to Severe Hot Flushes, Mean Change from Baseline",menopausal women [1]; Week 3,−0.19
same,"Severity of Moderate to Severe Hot Flushes, Mean Change from Baseline",menopausal women [1]; Week 4,−0.31
same,"Severity of Moderate to Severe Hot Flushes, Mean Change from Baseline",menopausal women [1]; Week 5,−0.35
same,"Severity of Moderate to Severe Hot Flushes, Mean Change from Baseline",menopausal women [1]; Week 6,−0.49
same,"Severity of Moderate to Severe Hot Flushes, Mean Change from Baseline",menopausal women [1]; Week 7,−0.67
same,"Severity of Moderate to Severe Hot Flushes, Mean Change from Baseline",menopausal women [1]; Week 8,−0.59
same,"Severity of Moderate to Severe Hot Flushes, Mean Change from Baseline",menopausal women [1]; Week 9,−0.77
same,"Severity of Moderate to Severe Hot Flushes, Mean Change from Baseline",menopausal women [1]; Week 10,−0.76
same,"Severity of Moderate to Severe Hot Flushes, Mean Change from Baseline",menopausal women [1]; Week 11,−0.89
same,"Severity of Moderate to Severe Hot Flushes, Mean Change from Baseline",menopausal women [1]; Week 12,−0.90
same,Improvement in moderate to severe symptoms of vulvar and vaginal atrophy,menopausal women [2]; 0.27 mg dose,statistically significant improvement
same,"Symptom of Vulvar and Vaginal Atrophy, number of subjects rated Moderate",menopausal women [2]; [5],21
same,"Symptom of Vulvar and Vaginal Atrophy, number of subjects rated Severe",menopausal women [2]; [5],16
same,"Symptom of Vulvar and Vaginal Atrophy, percent of subjects rated Severe",menopausal women [2]; [5],(13.9%)
same,"Symptom of Vulvar and Vaginal Atrophy, number of subjects rated Mild",menopausal women [2]; [6],15
same,"Symptom of Vulvar and Vaginal Atrophy, number of subjects rated Moderate",menopausal women [2]; [6],10
same,"Symptom of Vulvar and Vaginal Atrophy, number of subjects rated None",menopausal women [2]; [6],6
same,"Symptom of Vulvar and Vaginal Atrophy, number of subjects rated Severe",menopausal women [2]; [6],5
same,"Symptom of Vulvar and Vaginal Atrophy, percent of subjects rated Mild",menopausal women [2]; [6],(13.0%)
same,"Symptom of Vulvar and Vaginal Atrophy, percent of subjects rated Moderate",menopausal women [2]; [6],(8.7%)
same,"Symptom of Vulvar and Vaginal Atrophy, percent of subjects rated None",menopausal women [2]; [6],(5.2%)
same,"Symptom of Vulvar and Vaginal Atrophy, percent of subjects rated Severe",menopausal women [2]; [6],(4.3%)
same,Improvement in moderate to severe symptoms of vulvar and vaginal atrophy,menopausal women [2]; 0.375 mg dose,statistically significant improvement
same,"Symptom of Vulvar and Vaginal Atrophy, number of subjects rated Moderate",menopausal women [2]; [7],26
same,"Symptom of Vulvar and Vaginal Atrophy, number of subjects rated Severe",menopausal women [2]; [7],18
same,"Symptom of Vulvar and Vaginal Atrophy, percent of subjects rated Moderate",menopausal women [2]; [7],(22.8%)
same,"Symptom of Vulvar and Vaginal Atrophy, percent of subjects rated Severe",menopausal women [2]; [7],(15.8%)
same,"Symptom of Vulvar and Vaginal Atrophy, number of subjects rated Mild",menopausal women [2]; [8],17
same,"Symptom of Vulvar and Vaginal Atrophy, number of subjects rated Moderate",menopausal women [2]; [8],9
same,"Symptom of Vulvar and Vaginal Atrophy, number of subjects rated None",menopausal women [2]; [8],10
same,"Symptom of Vulvar and Vaginal Atrophy, number of subjects rated Severe",menopausal women [2]; [8],6
same,"Symptom of Vulvar and Vaginal Atrophy, percent of subjects rated Mild",menopausal women [2]; [8],(14.9%)
same,"Symptom of Vulvar and Vaginal Atrophy, percent of subjects rated Moderate",menopausal women [2]; [8],(7.9%)
same,"Symptom of Vulvar and Vaginal Atrophy, percent of subjects rated None",menopausal women [2]; [8],(8.8%)
same,"Symptom of Vulvar and Vaginal Atrophy, percent of subjects rated Severe",menopausal women [2]; [8],(5.3%)
same,Geometric Mean Concentration of E2 (plasma),[3]; 0.270 mg estradiol dose,4.2 pg/mL
same,Geometric Mean Concentration of E2 (plasma),[3]; 0.375 mg estradiol dose,3.7 pg/mL
same,concentration at 4 weeks,[3]; 0.27 mg,0.0142 ng/mL
same,concentration at 8 weeks,[3]; 0.27 mg,0.0156 ng/mL
same,concentration at 12 weeks,[3]; 0.27 mg,0.014 ng/mL
same,concentration at 4 weeks,[3]; 0.375 mg,0.0183 ng/mL
same,concentration at 8 weeks,[3]; 0.375 mg,0.0158 ng/mL
same,concentration at 12 weeks,[3]; 0.375 mg,0.0214 ng/mL
same,serum estradiol level,[4]; daily topical 0.75 mg dose of estradiol (1.25 g of hydro-alcoholic gel per day),elevation in the serum estradiol level
same,serum estradiol level,[4]; lower estradiol dose than 0.75 mg,did not achieve similar serum levels

# — patent US8431557B2, “Treatment of menopause-associated symptoms” (Besins Healthcare Luxembourg SARL, priority 2006, dated 2013)
